Here are results for nine molecules from patent US8206970B2, “Production of 2-butanol and 2-butanone employing aminobutanol phosphate phospholyase” (Butamax(TM) Advanced Biofuels LLC, priority 2006, dated 2012).

A value given as a limit tells only on which side of the number the result lay.

Assay [1] has as its system Erwinia amino alcohol O-phosphate lyase. Nature of the assay: activity of amino alcohol O-phosphate lyase towards aminobutanol O-phosphate and stereoisomers (MBTH derivatization, HPLC). Type of assay: biochemical, Erwinia carotovora subsp. atroseptica. To be noted: for conversion of substrate to ketone product: 100 μg cell free extract, 10 mM substrate, 0.1 mM PLP, pH 7.8, 37° C. overnight; for product yield / activity compared among substrates: same conditions, comparison between substrate isomers. Here is the method:
2-Butanone can also be detected by derivatization with 3-methyl-2-benzothiazolinone hydrazone (MBTH). An aqueous solution containing 2-butanone is mixed with an equal volume of an aqueous solution of 6 mg/mL MBTH in 375 mM glycine-HCl (pH 2.7) and incubated at 100° C. for 3 min. The resulting MBTH-derivatized samples are analyzed on a 25 cm×4.6 mm (id) Supelosil LC-18-D5 5 μm column (Supelco) using a mobile phase of 55% acetonitrile in water at a flow rate of 1 mL/min. The 2-butanone derivative appears as two peaks (cis and trans isomers) with retention times of approximately 12.3 and 13.3 min and absorbance maxima of 230 and 307 nm.
The activity of the amino alcohol O-phosphate lyase towards the aminobutanol O-phosphate substrates was studied under the same conditions as described above. The reaction was carried out at 37° C. overnight in a 1 mL reaction that contained 100 μg of cell free extract of E. coli TOP10/pBAD.KA-AT, 10 mM aminobutanol O-phosphate (either the mixture of (R,R)+(S,S) or the mixture of (R,S) +(S,R) isomers described in Example 15) in 100 mM Tris-HCI, pH 7.8, with 0.1 mM PLP. An aliquot of 100 μL reaction mixture was removed and the 2-butanone product was detected using the MBTH derivatization method described in the General Methods. […] Therefore the Erwinia amino alcohol O-phosphate lyase is an aminobutanol phosphate phospho-lyase in addition to an aminopropanol phosphate phospho-lyase.
The activity of the Erwinia amino alcohol O-phosphate lyase towards various stereoisomers of aminopropanol O-phosphate and aminobutanol O-phosphate was studied under the same conditions as described above. […] Both propanone and butanone products were derivatized by MBTH, and detected by HPLC as described in General Methods.

In assay [2] the test system is Klebsiella pneumoniae glycerol dehydratase. Kind of assay: glycerol dehydratase butanediol dehydratase activity. To be noted: crude cell free extract of KLP23/pSYCO12, 80 mM HEPES pH 8.2, 37° C., 12 μM coenzyme B12, 10 mM substrate. Type of assay: biochemical. From the text:
Glycerol dehydratase (E.C. 4.2.1.30) and diol dehydratase (E.C. 4.2.1.28), while structurally related, are often distinguished in the art based on various differences that include substrate specificity. […] The recombinant E. coli strain KLP23/pSYCO1 2, comprising Klebsiella pneumoniae genes encoding the multiple subunits of glycerol dehydratase (alpha: SEQ ID NO:145 (coding region) and 146 (protein); beta: SEQ ID NO: 147 (coding region) and 148 (protein); and gamma: SEQ ID NO: 149 (coding region) and 150 (protein)) and Klebsiella pneumoniae genes encoding the multiple subunits of glycerol dehydratase reactivase (large subunit, SEQ ID NO: 151 (coding region) and 152 (protein); and small subunit, SEQ ID NO: 153 (coding region) and 154 (protein)), is described in Emptage et al. U.S. Pat. No. 6,514,733 and in WO 2003089621, which are herein incorporated by reference. A crude, cell free extract of KLP23/pSYCO12 was prepared by methods known to one skilled in the art. […] The formation of 2-butanone was monitored by HPLC (Shodex SH-1011 column and SH-G guard column with refractive index detection; 0.01 M H2SO4 as the mobile phase at a flow rate of 0.5 mL/min and a column temperature of 50° C.; 2-butanone retention time=40.2 min). The rate of 2-butanone formation by the glycerol dehydratase preparation was determined to be 0.4 nmol/min/mg of crude protein.

Assay [3] concerns Vibrio Fluvialis APT (alanine:acetoin aminotransferase). Kind of assay: kinetic resolution of 3-amino-2-butanol isomers with the alanine:acetoin aminotransferase. Type of assay: biochemical, Vibrio Fluvialis JS17. To be noted: 10 mM pyruvate, 10 mM 1:1 isomer mixture, 0.28 mg enzyme, pH 9.0, 24 h room temperature. As for the experimental part: An analytical method for detection of 3-amino-2-butanol was developed based on the o-phthaldialdehyde derivatization method for amino acid determination reported by Roth [Anal. Chem. 43:880 (1971)]. A 200 μL aliquot of 1 mM 3-amino-2-butanol (mixture of isomers) was mixed with 200 μL of a 50 mM solution of borate (pH 9.5), to which was added 10 μL of 5 μL/mL 2-mercaptoethanol in ethanol and 10 μL of 10 mg/mL o-phthaldialdehdye in ethanol. The solution was incubated at room temperature for 10 min, at which time the derivative was extracted into 200 μL hexane. The hexane was separated from the aqueous solution by decanting, and 10 μL were injected onto a Chiracel OD HPLC column (Daicel Chemical Industries; Fort Lee, N.J.). The column was run isocratically with a mobile phase of 90:10 hexane:isopropanol at a rate of 1 mL/min. The derivatized isomers of 3-amino-2-butanol were detected by absorbance at 340 nm with retention times of approximately 15.7 and 16.8 min [(2S,3S) and (2R,3R)], and 18.4 and 21.9 min [(2R,3S) and (2S,3R)]. […] After 24 h at room temperature, an aliquot was removed and analyzed as described above. […] After 3 h, samples were taken from the reaction and analyzed as described above for acetoin and butanediol. […]

In assay [4] the test system is Erwinia amino alcohol O-phosphate lyase. Kind of assay: aminopropanol O-phosphate lyase assay (colorimetric, MBTH). Type of assay: biochemical, Erwinia carotovora subsp. atroseptica. To be noted: induced cell free extract 100 μg/mL, 10 mM substrate, 37° C. As for the experimental part: The PBAD.KA-AT plasmid was transformed into the E. coli TOP10 strain. A 50 mL culture of TOP10/pBAD.KA-AT strain was grown to mid log phase (OD600=0.6) in LB, 100 μg/mL ampicillin media at 37° C. with shaking at 250 rpm. The culture was induced by addition of L-arabinose to a final concentration of 0.1% (w/v), and it was further incubated at 37° C. for 5 h before harvesting by centrifugation. The cell pellet was resuspended in ice cold 50 mM Tris-HCl, pH 8.0, and disrupted by sonication on ice with a Fischer Sonic Model 300 Dismembrator (Fischer, Pittsburgh, Pa.) at 50% power, repeating four cycles of 30 seconds sonication with 60 seconds rest in-between each cycle. Each sonicated sample was centrifuged (15,000×g, 4 min, 4° C.). Clarified cell free extracts were analyzed for protein expression level and amino alcohol O-phosphate lyase activity.
The aminopropanol O-phosphate lyase assay was performed as described by Jones et al. (1973, Biochem. J. 134:167-182) and G. Gori et al. (1995, Chromatographia 40:336) The formation of propionaldehyde from aminopropanol O-phosphate was assayed calorimetrically with MBTH, which allows the detection of aldehyde formation. The reaction was performed as follows. In a 1 mL reaction, 100 μg cell free extract of E. coli TOP10/pBAD.KA-AT was added to 10 mM DL-1-amino-2-propanol O-phosphate in 100 mM Tris-HCl, pH 7.8, with 0.1 mM PLP. The reaction was incubated at 37° C. for 10 min and 30 min, with an aliquot of 100 μL reaction mixture removed at each time point and mixed with 100 μL of 6 mg/mL MBTH in 375 mM glycine-HCl, pH 2.7. This mixture was incubated at 100° C. for 3 min, cooled on ice for 15-30 s, and 1 mL of 3.3 mg/mL FeCl3.6H2O (in 10 mM HCl) was added, followed by incubation for 30 min at room temperature. The absorbance of the reaction mixture which contains the aldehyde-MBTH adduct, was measured at 670 nm. In the presence of the aminopropanol phosphate substrate, PLP and cell free extract, formation of aldehyde was detected, as indicated by an Abs670 that was higher than the control background of up to 0.3. In the absence of either the substrate or the cell free extract, no aldehyde formation was detected. In the absence of added PLP, somewhat less amount aldehyde was detected, presumably due to the presence of PLP in the cell free extract.

In assay [5] the test system is B12-independent diol dehydratase from Clostridium glycolicum. To be noted: cited from earlier work.

On to “(2R,3S)-3-amino-2-butanol O-phosphate and (2S,3R)-3-amino-2-butanol O-phosphate [mixture of (R,S) +(S,R) isomers]”, for which, in assay [1], the “conversion of substrate to ketone product” value (from here on “conversion of substrate”) is on record as “two peaks representing the derivatized 2-butanone isomers were observed” and the “product yield / activity compared among substrates” value is “higher product yield”. In the case of `C[C@@H](N)[C@@H](C)OP(=O)(O)O` (mixture of isomers) [mixture of (R,R)+(S,S), (R,R)-3-amino-2-butanol O-phosphate], the “conversion of substrate” value in assay [1] was “two peaks representing the derivatized 2-butanone isomers were observed”.

Regarding `CC(O)C(C)O` (stereo not drawn) [meso-2,3-butanediol], the “rate of 2-butanone formation” value in assay [2] was 0.4 nmol/min/mg of crude protein.

Consider `C[C@@H](N)COP(=O)(O)O` [(R)-2-amino-1-propanol O-phosphate], for which, in assay [1], the “conversion of substrate” value was “converted to propanone”. For the molecule `C[C@H](O)[C@@H](C)N` [(2S,3R) isomer, (2S,3R)-3-amino-2-butanol], the peak retained in assay [3] is listed as above 90%. As to `CC(CN)OP(=O)(O)O` (racemic) [Aminopropanol O-phosphate, DL-1-amino-2-propanol O-phosphate], in assay [4] (PLP (+)), the “OD670, 10 min” value is on record as 1.229 and the “OD670, 30 min” value came out at 2.264. Besides, in assay [4] (PLP (−)), the “OD670, 10 min” value worked out at 0.855 and the “OD670, 30 min” value worked out at 1.454. Further, the “product yield / activity compared among substrates” value in assay [1] is given as “highest activity”. Take `C[C@H](N)COP(=O)(O)O` [(S)-2-amino-1-propanol O-phosphate]: in assay [1], the “conversion of substrate” value is given as “converted to propanone” and the “product yield / activity compared among substrates” value is on record as “much higher”. As for `CC(O)C(C)O` (stereo not drawn) [2,3-butanediol], the “activity relative to the activity towards ethanediol” value in assay [5] is “less than 1%”.

Turning to `C[C@H](N)[C@@H](C)O` [(2R,3S) isomer, (2R,3S)-3-amino-2-butanol], the peak depleted in assay [3] is 95%.
